Experimental findings from US6420630B1, “Methods for tissue culturing and transforming elite inbreds of Zea mays L” (Stine Biotechnology, priority 1998, dated 2002) are described below.

Molecules are shown by their SMILES.

For assay [1], the system named is immature embryos of Stine inbred 963. Put plainly: Type II callus initiation from cultured immature embryos (embryos responding). In kind it is cell-based, Zea mays L. The conditions noted are these: sugar at 10 g/l in combination with 20 g/l sucrose, N6A medium. The protocol:
Plants of the elite corn inbred Stine 963 were grown under controlled conditions, either in a grow room or in a greenhouse. Plants were exposed throughout growth to a 16 h photoperiod with a daytime temperature of around 30° C. and a nighttime temperature of around 25° C. Plants were selfed and after approximately 10 days ears were harvested. At this time the immature embryos were on average between 1.0 and 2.0 mm in length. Usually the ears were then placed at 4° for two days prior to immature embryo excision. The response on standard […] media (Table 1) for inducing Type II callus was variable and appeared to be dependent on the physiological state of the donor plant. The frequency of Type II callus ranged from 0% up to 95%, with an average of around 40%. Immature embryos were excised with a view to using them as targets for Agrobacterium-mediated DNA delivery. For this work a reproducible and high frequency response is required and improvement in these aspects was therefore desirable. The protocol used for introduction of DNA mediated by Agrobacterium was based on that described by Hei and Komari (1997). The co-cultivation medium in this protocol (LSAS-Table 1) contains glucose, intended presumably as a carbon source for Agrobacterium. After close observation of immature embryos on LSAS medium it was thought worthwhile to check for the effects of glucose on culture initiation and subsequent development. 10 g/l of glucose was therefore added to […] medium. This medium was subsequently referred to as […] (Table 1). […] Various other sugars were tested in this regard (see Table 3) and some are capable of supporting an increased rate of Type II callus initiation (especially maltose, lactose, sorbitol and mannitol). None of those tested, however, were as efficient as glucose in stimulating Type II callus formation on […] medium. All sugars were tested at 10 g/l in combination with 20 g/l sucrose.

The test system of the next assay is Agrobacterium. In words: Control of Agrobacterium growth on culture media after co-cultivation. It is filed as cell-based, Agrobacterium tumefaciens. The conditions noted are these: for control of Agrobacterium growth: first 19 day culture period after co-cultivation. The text has this: Agrobacterium strain LBA 4404 harboring “super binary” vectors as described in U.S. patent Hei and Komari (1997) was used in corn transformation experiments. […] The gus expression cassette contains an intron in the N-terminal region of the gus gene which prevents expression in bacteria, but upon expression in plant cells the intron is spliced out and Gus activity is achieved (Ohta et al., 1990; Ishida et al., 1996). Agrobacterium containing “super binary” vectors were stored in glycerol stocks using acidified glycerol. Glycerol was acidified by adding 15 drops of 1 M HCl to one liter of glycerol (Sigma G-9012). Final glycerol concentration of stocks was 15 to 20% and stocks were frozen at minus 86° C. When glycerol stocks were used as the source for transformation experiments, Agrobacterium was made ready for transformation experiments by removing a few flakes of frozen culture with a sterile loop, streaking it out on YP medium (5 g/l yeast extract, 10 g/l peptone, 5 g/l NaCl, and 15 g/l agar) containing 50 mg/l spectinomycin, and incubating it for one or two days at 28° C. When glycerol stocks were not used as the source, Agrobacterium maintained on YP plus spectinomycin at 4° C. was used to initiate new cultures of Agrobacterium that were grown as described above.
Therefore, a lower level of cefotaxime was tested in the presence of silver nitrate to see if embryo response and subsequent clone recovery could be improved. […] The clones were then transferred to DN62B (Table 4) for growth and further selection prior to regeneration.

For `O=C[C@H](O)[C@@H](O)[C@H](O[C@@H]1O[C@H](CO)[C@@H](O)[C@H](O)[C@H]1O)[C@H](O)CO` [Cellobiose], the “Embryo Response” value in assay [1] is under 50%. Still for that read-out and setting: the figure for `O=C(CO)[C@@H](O)[C@H](O)[C@H](O)CO` [Fructose] is under 50%; for `O=C[C@H](O)[C@@H](O)[C@@H](O)[C@H](O)CO` [Galactose] it is under 30%; for `OC[C@H]1O[C@H](OCC2O[C@@H](O)[C@H](O)[C@@H](O)[C@@H]2O)[C@H](O)[C@@H](O)[C@H]1O` (stereo partly shown) [Mellibiose] it is under 50%.

Consider `OC[C@H]1O[C@H](OC[C@H]2O[C@H](O[C@]3(CO)O[C@H](CO)[C@@H](O)[C@@H]3O)[C@H](O)[C@@H](O)[C@@H]2O)[C@H](O)[C@@H](O)[C@H]1O` [Raffinose], for which, in assay [1], the “Embryo Response” value was under 50%.

Consider `OC[C@H]1O[C@H](O[C@H]2O[C@H](CO)[C@@H](O)[C@H](O)[C@H]2O)[C@H](O)[C@@H](O)[C@@H]1O` [Trehalose], for which, in assay [1], the “Embryo Response” value is listed as under 50%. Turning to `O=C[C@H](O)[C@@H](O)[C@H](O)CO` [Xylose], in assay [1], the “Embryo Response” value is recorded as under 50%.

For the compound `CO/N=C(\C(=O)N[C@@H]1C(=O)N2C(C(=O)O)=C(COC(C)=O)CS[C@H]12)c1csc(N)n1` [cefotaxime], the “control of Agrobacterium growth” value in the assay with Agrobacterium (10 mg/l cefotaxime in presence of silver nitrate) is reported as “not”; in the assay with Agrobacterium (50 mg/l cefotaxime in presence of silver nitrate), “Adequate control of Agrobacterium growth”. As for `O=[N+]([O-])[O-].[Ag+]` [silver nitrate], the Agrobacterium growth entry with Agrobacterium (media containing silver nitrate) is given as “inhibited”.
